Measurements: ChEMBL document CHEMBL1201862, “PubChem BioAssay data set” (2004)
Counter-ions that a name gives are not always drawn. Active and inactive are the calls of the source.

Key:
[1] = target: Cytochrome P450 2C19 (Homo sapiens, UniProt P33261); test: Cytochrome panel assay with activity outcomes. Panel member name: p450-cyp2c19 Compounds with AC50 equal or less than 10 uM are considered active; format: functional
[2] = cells; format: functional, cell-based
[3] = cells; format: functional, cell-based; remark: listed apart in the source
[4] = Luminescence Cell-Based Dose Response HTS to Identify Activators of Luciferase Translation or Activity in H4 […] Cells. [Related pubchem assays: 1829 (Project Summary), 1814 (Primary HTS)]; format: functional
[5] = Luminescence Cell-Based Dose Confirmation HTS to Identify Activators of 5'UTR Stem-Loop Driven Alpha-Synuclein mRNA Translation in H4 Neuroglioblastoma Cells. [Related pubchem assays: 1829 (Project Summary), 1814 (Primary HTS)]; format: functional
[6] = test system: H4; test: Luminescence Cell-Based Dose Response HTS to Identify Activators of 5'UTR Stem-Loop Driven Prion Protein mRNA Translation in H4 Neuroglioblastoma Cells. [Related pubchem assays: 1829 (Project Summary), 1814 (Primary HTS)]; format: functional; conditions: Homo sapiens
[7] = target: Genome polyprotein (dengue virus type 2, UniProt P29990); test: flavivirus cap methylation enzyme inhibition – biochemical, confirmation dose response, primary screen (AID 588689); format: functional
Genome polyprotein, sequence (P29990 2492-3391 limits assumed): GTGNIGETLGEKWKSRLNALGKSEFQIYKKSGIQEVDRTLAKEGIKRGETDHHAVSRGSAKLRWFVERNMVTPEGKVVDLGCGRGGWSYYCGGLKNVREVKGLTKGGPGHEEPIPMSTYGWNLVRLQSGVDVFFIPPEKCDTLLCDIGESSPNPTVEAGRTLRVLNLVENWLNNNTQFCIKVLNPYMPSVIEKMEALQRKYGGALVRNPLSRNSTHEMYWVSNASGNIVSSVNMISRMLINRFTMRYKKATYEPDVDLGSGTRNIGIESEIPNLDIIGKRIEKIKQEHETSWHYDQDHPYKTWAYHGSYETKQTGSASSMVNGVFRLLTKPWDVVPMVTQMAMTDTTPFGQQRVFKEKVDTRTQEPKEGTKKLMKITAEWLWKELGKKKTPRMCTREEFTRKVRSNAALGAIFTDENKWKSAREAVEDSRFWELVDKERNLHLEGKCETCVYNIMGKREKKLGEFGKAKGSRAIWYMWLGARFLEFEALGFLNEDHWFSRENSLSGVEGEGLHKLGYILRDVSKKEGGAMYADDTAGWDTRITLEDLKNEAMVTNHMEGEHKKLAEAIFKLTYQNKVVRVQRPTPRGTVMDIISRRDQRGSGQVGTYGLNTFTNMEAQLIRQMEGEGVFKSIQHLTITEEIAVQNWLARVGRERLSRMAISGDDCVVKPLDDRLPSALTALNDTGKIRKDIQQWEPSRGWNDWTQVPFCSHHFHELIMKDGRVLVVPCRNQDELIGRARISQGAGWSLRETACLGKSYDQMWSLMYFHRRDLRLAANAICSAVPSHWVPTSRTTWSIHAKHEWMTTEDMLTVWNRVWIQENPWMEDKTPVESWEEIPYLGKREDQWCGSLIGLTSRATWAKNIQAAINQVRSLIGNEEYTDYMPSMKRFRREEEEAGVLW

[8] = microbe, parasite or virus in culture; format: functional; conditions: Mycobacterium tuberculosis
[9] = fluconazole-exposed Candida albicans growth modulators – fluorescence, retest, confirmation (AID 2467); format: functional, cell-based
[10] = NIH-3T3 fibroblast cytotoxicity, dose response, cytotoxicity control, cell-based, fluorescence, Alamar Blue, secondary assay (AID 2327); format: functional;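 further: NIH-3T3 mouse fibroblasts cultured with fluconazole at 8 µg/mL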
[11] = viability of PTEN-deleted HCT116 cells – cell-based, HCT116 PTEN knockout, dose response (AID 1047); format: functional;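 further: HCT116 colon tumor cells with PTEN knocked out; cells exposed to compound for 60 hours before readout; potency for loss of cell viability measured by luminescence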
[12] = target: Glyceraldehyde-3-phosphate dehydrogenase (Homo sapiens, UniProt P04406)
Glyceraldehyde-3-phosphate dehydrogenase, sequence (P04406 whole entry): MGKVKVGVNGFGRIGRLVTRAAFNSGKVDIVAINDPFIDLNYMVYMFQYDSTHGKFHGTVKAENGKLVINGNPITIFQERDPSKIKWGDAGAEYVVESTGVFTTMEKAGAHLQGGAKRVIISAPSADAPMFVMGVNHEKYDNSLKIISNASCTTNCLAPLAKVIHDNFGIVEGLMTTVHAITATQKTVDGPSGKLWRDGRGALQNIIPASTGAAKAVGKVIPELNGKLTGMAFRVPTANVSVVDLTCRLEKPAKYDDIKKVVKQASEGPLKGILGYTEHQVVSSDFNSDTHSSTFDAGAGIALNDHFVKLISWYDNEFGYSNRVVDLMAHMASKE

[13] = target: T1, Cytochrome P450 3A4 (Homo sapiens, UniProt P08684); conditions: Potency
T1 sequence (P08684 whole entry): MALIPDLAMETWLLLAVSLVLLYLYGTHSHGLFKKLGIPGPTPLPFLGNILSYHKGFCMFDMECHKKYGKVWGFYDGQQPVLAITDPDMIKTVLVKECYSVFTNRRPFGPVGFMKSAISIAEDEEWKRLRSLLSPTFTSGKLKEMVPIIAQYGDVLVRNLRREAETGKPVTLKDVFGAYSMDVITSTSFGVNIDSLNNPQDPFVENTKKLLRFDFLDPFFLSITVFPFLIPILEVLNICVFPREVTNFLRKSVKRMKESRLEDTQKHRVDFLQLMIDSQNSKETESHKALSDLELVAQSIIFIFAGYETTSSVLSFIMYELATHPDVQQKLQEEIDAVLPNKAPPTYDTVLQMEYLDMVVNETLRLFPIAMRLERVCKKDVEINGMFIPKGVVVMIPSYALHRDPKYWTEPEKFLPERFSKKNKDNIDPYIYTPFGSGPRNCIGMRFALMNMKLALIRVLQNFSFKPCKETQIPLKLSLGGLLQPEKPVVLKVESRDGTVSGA

[14] = target: Cytochrome P450 2D6 (Homo sapiens, UniProt P10635);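 further: CYP2D6 member of a cytochrome P450 panel assay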
Cytochrome P450 2D6, sequence (P10635 whole entry): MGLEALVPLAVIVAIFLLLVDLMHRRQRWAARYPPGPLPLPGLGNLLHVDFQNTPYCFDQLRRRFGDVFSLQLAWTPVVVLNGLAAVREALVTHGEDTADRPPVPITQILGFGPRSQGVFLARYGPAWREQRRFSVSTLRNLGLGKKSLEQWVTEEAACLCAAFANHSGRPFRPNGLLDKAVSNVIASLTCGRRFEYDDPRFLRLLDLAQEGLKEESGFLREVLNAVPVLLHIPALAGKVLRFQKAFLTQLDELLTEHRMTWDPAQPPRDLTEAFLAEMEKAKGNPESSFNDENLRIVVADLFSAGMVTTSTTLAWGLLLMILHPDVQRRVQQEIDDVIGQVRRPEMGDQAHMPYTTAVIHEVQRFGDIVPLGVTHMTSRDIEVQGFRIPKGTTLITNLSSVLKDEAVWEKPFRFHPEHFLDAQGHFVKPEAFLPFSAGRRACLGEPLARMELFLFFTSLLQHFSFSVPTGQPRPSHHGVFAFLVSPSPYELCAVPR

[15] = target: Cytochrome P450 2C9 (Homo sapiens, UniProt P11712)
Cytochrome P450 2C9, sequence (P11712 whole entry): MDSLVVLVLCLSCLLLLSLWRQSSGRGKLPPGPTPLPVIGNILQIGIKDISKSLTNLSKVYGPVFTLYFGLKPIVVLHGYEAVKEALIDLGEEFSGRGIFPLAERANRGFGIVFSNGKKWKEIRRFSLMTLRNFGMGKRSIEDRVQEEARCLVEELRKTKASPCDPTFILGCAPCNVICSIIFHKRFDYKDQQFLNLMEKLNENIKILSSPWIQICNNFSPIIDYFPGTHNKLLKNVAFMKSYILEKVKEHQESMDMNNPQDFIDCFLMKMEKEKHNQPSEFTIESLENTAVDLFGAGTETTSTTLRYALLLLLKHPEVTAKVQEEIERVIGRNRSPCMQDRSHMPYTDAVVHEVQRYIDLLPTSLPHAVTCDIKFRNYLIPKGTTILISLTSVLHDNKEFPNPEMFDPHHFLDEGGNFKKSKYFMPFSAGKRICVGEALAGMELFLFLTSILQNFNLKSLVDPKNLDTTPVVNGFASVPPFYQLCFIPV

[16] = target: T1, Cytochrome P450 3A4
[17] = target: T2, Ubiquitin-conjugating enzyme E2 N (Homo sapiens, UniProt P61088); format: functional;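 further: Dose-response confirmation in a TR-FRET assay detecting UBC13-driven polyubiquitin chain formation, inhibition measured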
T2 sequence (P61088 whole entry): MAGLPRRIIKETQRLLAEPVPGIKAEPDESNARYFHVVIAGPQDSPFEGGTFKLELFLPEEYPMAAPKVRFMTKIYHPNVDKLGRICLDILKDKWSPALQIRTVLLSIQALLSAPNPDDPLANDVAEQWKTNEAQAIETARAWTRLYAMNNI

[18] = target: T3, DNA repair protein RAD52 homolog (Homo sapiens, UniProt P43351); format: functional, biochemical
T3 sequence (P43351 whole entry): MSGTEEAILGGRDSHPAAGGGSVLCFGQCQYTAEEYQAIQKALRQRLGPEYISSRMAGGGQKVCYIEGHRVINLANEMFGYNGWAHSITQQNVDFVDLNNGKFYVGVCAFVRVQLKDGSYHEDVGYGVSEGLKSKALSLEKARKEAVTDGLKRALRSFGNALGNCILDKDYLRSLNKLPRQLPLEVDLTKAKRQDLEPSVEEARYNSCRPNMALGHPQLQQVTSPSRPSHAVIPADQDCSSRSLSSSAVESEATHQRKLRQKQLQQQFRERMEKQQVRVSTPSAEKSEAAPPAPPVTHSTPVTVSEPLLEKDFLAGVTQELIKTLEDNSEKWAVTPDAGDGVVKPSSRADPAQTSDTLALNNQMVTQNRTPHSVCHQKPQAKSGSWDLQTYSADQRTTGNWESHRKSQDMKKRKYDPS

[19] = cells; format: functional
[20] = test system: BJ; test: cells; format: functional, cell-based; conditions: Homo sapiens
[21] = target: Luciferin 4-monooxygenase (Photinus pyralis, UniProt P08659); test: inhibition of purified Photinus pyralis luciferase – biochemical, luminescence, dose response (AID 1891)
Luciferin 4-monooxygenase, sequence (P08659 whole entry): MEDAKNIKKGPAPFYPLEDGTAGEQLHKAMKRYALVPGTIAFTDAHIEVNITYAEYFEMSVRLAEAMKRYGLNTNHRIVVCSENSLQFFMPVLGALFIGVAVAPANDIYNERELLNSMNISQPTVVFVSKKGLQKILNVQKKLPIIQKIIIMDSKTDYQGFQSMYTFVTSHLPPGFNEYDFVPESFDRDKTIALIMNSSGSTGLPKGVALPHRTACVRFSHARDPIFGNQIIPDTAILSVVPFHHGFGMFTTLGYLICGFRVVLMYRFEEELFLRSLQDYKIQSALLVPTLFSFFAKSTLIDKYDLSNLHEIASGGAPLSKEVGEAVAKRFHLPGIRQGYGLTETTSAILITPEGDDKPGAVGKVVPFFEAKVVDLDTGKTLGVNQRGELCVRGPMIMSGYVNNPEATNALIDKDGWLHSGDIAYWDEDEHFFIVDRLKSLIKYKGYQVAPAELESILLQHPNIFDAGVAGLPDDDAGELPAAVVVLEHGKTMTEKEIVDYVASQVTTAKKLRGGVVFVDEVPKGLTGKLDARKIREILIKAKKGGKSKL

[22] = DRD fibroblast viability loss – cell-based, non-viral oncogenic, luminescence, dose response (AID 1934); format: functional; conditions: Homo sapiens
[23] = test system: BJ; test: BJ-TERT fibroblast viability loss – cell-based, RAS-independent, luminescence, dose response (AID 1933); format: functional; conditions: Homo sapiens
[24] = Luminescence Cell-Based Dose Confirmation HTS to Identify Inhibitors of Platelet Dense Granule Release. [Related pubchem assays: 1663 (Primary HTS), 1678 (Summary of Project)]; format: functional
[25] = test system: BJ; test: BJ-TERT-LT-ST fibroblast viability loss – cell-based, RAS-independent, luminescence, dose response (AID 1935); format: functional; conditions: Homo sapiens;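 further: BJ fibroblasts immortalized with TERT plus LT and ST oncogenes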
[26] = test system: Vero; test: cells; format: functional; conditions: Chlorocebus sabaeus
[27] = viability of HCT116 lacking mutant beta-catenin – cell-based, human colon tumor, dose response (AID 1045); format: functional;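 further: HCT116 colon tumor cells with beta catenin knocked out; cells exposed to compound for 60 hours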
[28] = NIH3T3 cell viability loss – ATP luminescence, mouse fibroblasts, counter-screen, dose response (AID 2010); format: functional, cell-based;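 further: cells exposed to compound for about 90 hours before reading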
[29] = Trypanosoma cruzi growth suppression in host cells – NIH3T3 host cells, beta-gal luminescence, confirmation (AID 2044); format: functional, cell-based;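 further: intracellular parasites grown in NIH/3T3 mouse fibroblasts as host cells; luminescent beta-galactosidase reporter signal from transgenic T. cruzi replicating inside host cells; inhibitors lower the luminescence signal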
[30] = target: FAD-linked sulfhydryl oxidase ALR (Homo sapiens, UniProt P55789); test: ALR-catalysed DTT oxidation blockers – biochemical, H2O2 detection, luminescence, cherry-pick, dose response (AID 493248)
FAD-linked sulfhydryl oxidase ALR, sequence (P55789 whole entry): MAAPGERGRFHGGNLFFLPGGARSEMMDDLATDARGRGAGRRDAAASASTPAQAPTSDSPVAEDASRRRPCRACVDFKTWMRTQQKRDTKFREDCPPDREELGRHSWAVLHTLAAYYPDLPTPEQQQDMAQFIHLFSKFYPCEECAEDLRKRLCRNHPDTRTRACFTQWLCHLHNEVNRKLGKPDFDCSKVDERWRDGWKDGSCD

Cytochrome P450 2C19, sequence (P33261 whole entry): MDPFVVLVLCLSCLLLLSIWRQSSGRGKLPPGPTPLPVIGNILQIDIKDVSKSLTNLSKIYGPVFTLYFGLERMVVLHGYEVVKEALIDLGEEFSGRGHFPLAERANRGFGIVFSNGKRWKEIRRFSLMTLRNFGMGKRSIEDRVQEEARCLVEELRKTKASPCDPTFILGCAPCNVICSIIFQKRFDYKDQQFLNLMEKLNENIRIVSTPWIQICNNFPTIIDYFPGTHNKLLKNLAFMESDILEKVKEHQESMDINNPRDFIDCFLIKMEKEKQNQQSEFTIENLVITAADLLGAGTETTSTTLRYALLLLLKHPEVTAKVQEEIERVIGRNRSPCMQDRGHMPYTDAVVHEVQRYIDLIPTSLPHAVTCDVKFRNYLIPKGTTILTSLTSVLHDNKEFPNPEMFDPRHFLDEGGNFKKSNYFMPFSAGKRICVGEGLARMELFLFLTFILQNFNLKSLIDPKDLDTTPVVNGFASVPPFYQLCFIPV

## CN(C)c1ccc(-c2cc(NCc3cccnc3)ncn2)cc1
[1]
  AC50: 39.8 µM (inconclusive)

## CCC(NCc1cc(OC)cc(OC)c1)=C1C(=O)NC(=O)NC1=O
[2]
  EC50: > 350 µM (not active)
[3]
  EC50: > 350 µM (not active)

## COC(=O)CCCC1=CC2=CC(=O)C(C)(OC(=O)c3cccs3)C(=O)C2=CN1Cc1ccc2c(c1)OCO2 (centres undefined)
[2]
  EC50: > 350 µM (not active)
[3]
  EC50: > 350 µM (not active)

## COn1c(-c2ccc(Cl)cc2)nc2ncccc21
[4]
  EC50: 35.5 µM (active)
[5]
  EC50: 0.106 µM (active)
[6]
  EC50: 51.9 µM (active)

## CC1=NOC(=O)/C1=C/c1ccc2c(c1)OCO2
[7]
  IC50: 11.6 µM (active)

## NS(=O)(=O)c1ccc(CNC(=O)c2csc3c2CCCC3)cc1
[2]
  EC50: > 350 µM (not active)
[3]
  EC50: > 350 µM (not active)

## Cc1cccc2c1-c1sc(C(=O)Nc3ccccc3N3CCN(C)CC3)cc1CO2
[8]
  CC50: 18.8 µM (active)

## O=C(CSc1nc[nH]n1)NCCc1ccc(Cl)cc1Cl
[2]
  EC50: > 350 µM (not active)
[3]
  EC50: 149 µM (active)

## O=C(NCCCc1ccccc1)Nc1cccc(Cl)c1
[9]
  EC50: > 38 µM (not active)
[10]
  EC50: > 150 µM (inactive)
[11]
  EC50: 43.5 µM (active)

## Cc1cccc(N2CCN(C(=O)CNC(=O)c3ccccc3)CC2)c1C
[4]
  EC50: 11.3 µM (active)
[5]
  EC50: 19.2 µM (active)
[6]
  EC50: > 60 µM (not active)

## O=C(c1ccccc1)c1ccc(Oc2ccc(C(=O)O)c(C(=O)O)c2)cc1
[12]
  IC50: > 100 µM (not active)

## CCCCC(CC)COC(=O)CCCCC(=O)OCC(CC)CCCC (centres undefined)
[13]
  AC50: 20 µM (inconclusive)

## COc1ccc(Oc2ncc3nc(C)c(=O)n(Cc4cccs4)c3n2)cc1
[14]
  AC50: 25.1 µM (inconclusive)
[1]
  AC50: 39.8 µM (inconclusive)
[15]
  AC50: 39.8 µM (inconclusive)

## COc1cc(/C=C2\SC(=S)N(C(C(=O)O)c3ccccc3)C2=O)cc(OC)c1OC (centres undefined)
[7]
  IC50: > 100 µM (active)

## Cc1cc2cc(C=O)c(Cl)nc2cc1C
[14]
  AC50: 7.08 µM (inconclusive)
[1]
  AC50: 0.0708 µM (inconclusive)
[16]
  AC50: 10 µM (inconclusive)

## CSc1nc2sc3c(c2c(=O)n1C)CCC(C)C3 (centres undefined)
[4]
  EC50: 19.9 µM (active)
[5]
  EC50: 5.51 µM (active)
[6]
  EC50: 15.3 µM (active)

## COc1cccc(N2CCN(C3=C(Cl)C(=O)N(c4cccc(C(F)(F)F)c4)C3=O)CC2)c1
[12]
  IC50: > 50 µM (inconclusive)

## CCOC(=O)c1c(NC(=O)C(NCCN(C)C)c2ccccc2)sc2c1CCCC2 (centres undefined)
[17]
  IC50: > 20 µM (inactive)
[18]
  AC50: 10 µM (active)
[8]
  CC50: 13.2 µM (active)

## CC1CCC(NC(=O)Cn2cc3c(n2)CCCC3)CC1 (centres undefined)
[4]
  EC50: 3.02 µM (active)
[5]
  EC50: 0.278 µM (active)
[6]
  EC50: 4.09 µM (active)

## COC(c1ccccc1Br)C(C)/C=C/CCO (centres undefined)
[13]
  AC50: 3.16 µM (inconclusive)

## Cc1c(Cl)c([N+](=O)[O-])nn1CC(=O)NC12CC3CC(CC(C3)C1)C2
[2]
  EC50: > 350 µM (not active)
[3]
  EC50: > 350 µM (not active)

## CC(C)OC(=O)c1sc2nc3c(cc2c1N)C(=O)CCC3
[4]
  EC50: 73.1 µM (active)
[5]
  EC50: 41.9 µM (active)
[6]
  EC50: 41.6 µM (active)

## O=C(NCCc1c[nH]c2ccccc12)c1cc2ccccc2oc1=O
[4]
  EC50: 119 µM (active)
[19]
  IC50: 0.34 µM (active)
[5]
  EC50: 0.481 µM (active)
[6]
  EC50: 11 µM (active)

## O=C(CCl)NCCCCCCCCCNC(=O)CCl
[20]
  EC50: > 150 µM (not active)
[21]
  EC50: > 112 µM (not active)
[22]
  EC50: > 150 µM (not active)
[23]
  EC50: 18.8 µM (active)
[8]
  CC50: 19 µM (active)
[24]
  EC50: > 112 µM (not active)
[25]
  EC50: > 150 µM (not active)

## CC(SCc1cn2cc(Cl)ccc2n1)C(=O)O (centres undefined)
[1]
  AC50: 28.2 µM (inconclusive)

## COc1ccc(C(=O)/C=C/c2ccccc2F)c(OC(=O)c2ccc([N+](=O)[O-])cc2)c1
[26]
  CC50: 20.9 µM (active)

## Cc1cccc(N2C(=O)C(Cl)=C(N3CCN(C/C=C/c4ccccc4)CC3)C2=O)c1
[12]
  IC50: > 50 µM (inconclusive)

## Cn1nc(-c2ccc(N3CCCCC3)c(NC(=O)c3ccco3)c2)c2ccccc2c1=O
[8]
  CC50: 26.3 µM (active)
[27]
  EC50: 9.07 µM (active)
[28]
  EC50: > 60 µM (not active)
[11]
  EC50: 7.35 µM (active)
[29]
  EC50: 1.23 µM (active)

## C#CCOc1c(/C=C\c2nc(O)c([N+](=O)[O-])c(O)n2)cc(Br)cc1OC
[7]
  IC50: 74.5 µM (active)

## O=C1OCC(c2ccccc2)=C1c1ccc(S(=O)(=O)N2CCOCC2)s1
[14]
  AC50: 31.6 µM (inconclusive)
[1]
  AC50: 22.4 µM (inconclusive)
[16]
  AC50: 28.2 µM (inconclusive)

## CCCOc1ccc(CSC(CC(=O)O)C(=O)O)cc1 (centres undefined)
[1]
  AC50: 0.224 µM (inconclusive)

## O=C(NNc1ccc([N+](=O)[O-])cn1)Nc1ccc(N=Nc2ccccc2)cc1
[26]
  CC50: 19.4 µM (active)

## COC(C)(C)CCCC(C)C/C=C/C(C)=C/C(=O)OC(C)C (centres undefined)
[13]
  AC50: 31.6 µM (inconclusive)

## O=c1cc(-c2ccc(O)cc2)oc2cc(O)ccc12
[13]
  AC50: 7.94 µM (inconclusive)

## Cc1occc1C(=O)N/N=C/c1cccc2ccccc12
[4]
  EC50: 0.19 µM (active)
[5]
  EC50: 0.129 µM (active)
[6]
  EC50: 52.9 µM (active)

## CC1(C)CC(=O)C(/C=N/CCN2CCN(C(=S)Nc3cccc(Cl)c3)CC2)=C(O)C1
[2]
  EC50: > 350 µM (not active)
[3]
  EC50: > 350 µM (not active)

## COc1cc(/C=N/NC(=O)c2cccc([N+](=O)[O-])c2)ccc1OCc1ccc(C)cc1
[1]
  AC50: 2.51 µM (inconclusive)
[15]
  AC50: 1.58 µM (inconclusive)

## Nc1ccc(Oc2ccc(N)cc2)cc1
[13]
  AC50: 31.6 µM (inconclusive)

## CN1CCCCC1c1ccc(-c2cccnc2)nc1 (centres undefined) [ANABASAMINE HYDROCHLORIDE]
[13]
  AC50: 12.6 µM (inconclusive)

## COc1cc(C)c(C(=O)Oc2cc(C)c(C(=O)O)c(O)c2C)c(OC)c1C [DIFFRACTAIC ACID]
[30]
  AC50: 0.784 µM (active)
[13]
  AC50: 25.1 µM (inconclusive)

## CS(C)(=O)=O [DIMETHYL SULFONE]
[13]
  AC50: 20 µM (inconclusive)
